In ChEMBL document CHEMBL1201862, “PubChem BioAssay data set” (2004):
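How tested: cells in 96-well plates exposed to compound for 48 hours at five concentrations. Here, GI50 denotes the concentration required for 50% inhibition of growth.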 Activity calls are given as the source filed them. Rule as the data show it: active = GI50 up to about 1.1 µM and inactive = higher.

What was measured:
Experiment in all cases: DTP human tumour cell line panel, 48 h
OVCAR-8 = test system: OVCAR-8
SNB-75 = test system: SNB-75
COLO 205 = test system: COLO 205
SR = test system: SR
RXF 393 = test system: RXF 393
HOP-62 = test system: HOP-62
HOP-92 = test system: HOP-92
NCI-H23 = test system: NCI-H23
CCRF-CEM = test system: CCRF-CEM
K562 = test system: K562
LOX IMVI = test system: LOX IMVI
OVCAR-5 = test system: OVCAR-5
SK-MEL-28 = test system: SK-MEL-28
ACHN = test system: ACHN
IGROV-1 = test system: IGROV-1
HCT-116 = test system: HCT-116
SK-MEL-2 = test system: SK-MEL-2
PC-3 = test system: PC-3
NCI/ADR-RES = test system: NCI/ADR-RES

Structure (SMILES) | GI50 (OVCAR-8) | GI50 (SNB-75) | GI50 (COLO 205) | GI50 (SR) | GI50 (RXF 393) | GI50 (HOP-62) | GI50 (HOP-92) | GI50 (NCI-H23) | GI50 (CCRF-CEM) | GI50 (K562) | GI50 (LOX IMVI) | GI50 (OVCAR-5) | GI50 (SK-MEL-28) | GI50 (ACHN) | GI50 (IGROV-1) | GI50 (HCT-116) | GI50 (SK-MEL-2) | GI50 (PC-3) | GI50 (NCI/ADR-RES)
COc1cc2c(c(O)c1O)-c1ccc(OC)c(=O)cc1C(NC(C)=O)CC2 (stereo unspecified) | 15.6 µM (inactive) | 2.57 µM (inactive) | 3.87 µM (inactive) | 5.69 µM (inactive) | 14.6 µM (inactive) | 20.5 µM (inactive) | 4.59 µM (inactive) | 5.06 µM (inactive) | 3.49 µM (inactive) | 3.64 µM (inactive) | 6.82 µM (inactive) | 76.6 µM (inactive) | 24.8 µM (inactive) | 74.6 µM (inactive) | 32.1 µM (inactive) | 5.57 µM (inactive) | 3.13 µM (inactive) |  | 
COc1ccc2[nH]cc(CCNC(=O)[C@](O)(Cc3cn(C)c4ccccc34)[C@@]3(O)OCC(O)C3O)c2c1 (stereo partly specified) | > 100 µM (inactive) | 38.5 µM (inactive) | > 100 µM (inactive) | > 100 µM (inactive) | > 100 µM (inactive) | > 100 µM (inactive) | 50.2 µM (inactive) | > 100 µM (inactive) | 35.8 µM (inactive) | 74 µM (inactive) | > 100 µM (inactive) | > 100 µM (inactive) | > 100 µM (inactive) | > 100 µM (inactive) | > 100 µM (inactive) | 47.3 µM (inactive) | > 100 µM (inactive) |  | 
C#CCCOC1(OC)N=NC(C)(C)O1 (stereo unspecified) | > 100 µM (inactive) | > 100 µM (inactive) | > 100 µM (inactive) | > 100 µM (inactive) | > 100 µM (inactive) | > 100 µM (inactive) | > 100 µM (inactive) | > 100 µM (inactive) | > 100 µM (inactive) | > 100 µM (inactive) | > 100 µM (inactive) | > 100 µM (inactive) | > 100 µM (inactive) | > 100 µM (inactive) | > 100 µM (inactive) | > 100 µM (inactive) | > 100 µM (inactive) | > 100 µM (inactive) | > 100 µM (inactive)
BrCc1ccc2ccc3ccc(CBr)nc3c2n1 | 4.73 µM (inactive) | 1.32 µM (inactive) | 1.92 µM (inactive) | 1.87 µM (inactive) | 2.24 µM (inactive) | 7 µM (inactive) | 2.06 µM (inactive) | 5.61 µM (inactive) | 0.995 µM (active) | 2.53 µM (inactive) | 1.58 µM (inactive) | 9.44 µM (inactive) | 2.81 µM (inactive) | 2.1 µM (inactive) | 4.01 µM (inactive) | 2.34 µM (inactive) | 3.12 µM (inactive) | 1.79 µM (inactive) | 1.86 µM (inactive)
CCCCCCCC(=O)OCC1OC(OC)C(NC(=O)N(CCCl)N=O)C(O)C1O (stereo unspecified) | 18.2 µM (inactive) | 4.72 µM (inactive) | 14.7 µM (inactive) | 0.272 µM (active) | 16.1 µM (inactive) | 4.27 µM (inactive) | 1.36 µM (inactive) | 8.28 µM (inactive) | 4.06 µM (inactive) | 12.4 µM (inactive) | 0.908 µM (active) | 26.4 µM (inactive) | 33.3 µM (inactive) | 7.18 µM (inactive) | 21.7 µM (inactive) | 3.22 µM (inactive) | 17.1 µM (inactive) |  | 
COc1ccc(C(=O)C(c2ccc(OCc3ccccc3)cc2)c2ccc(OCc3ccccc3)cc2)cc1 | > 100 µM (inactive) | > 100 µM (inactive) | > 100 µM (inactive) | > 100 µM (inactive) | > 100 µM (inactive) | > 100 µM (inactive) | > 100 µM (inactive) | > 100 µM (inactive) | > 100 µM (inactive) | > 100 µM (inactive) | > 100 µM (inactive) | > 100 µM (inactive) | > 100 µM (inactive) | > 100 µM (inactive) | > 100 µM (inactive) | > 100 µM (inactive) | > 100 µM (inactive) |  | 
CN(CC(=O)O)c1ncc2c(n1)CCCC2 | > 100 µM (inactive) | > 100 µM (inactive) | > 100 µM (inactive) | > 100 µM (inactive) | > 100 µM (inactive) | > 100 µM (inactive) | > 100 µM (inactive) | > 100 µM (inactive) | > 100 µM (inactive) | > 100 µM (inactive) | > 100 µM (inactive) | > 100 µM (inactive) | > 100 µM (inactive) | > 100 µM (inactive) | > 100 µM (inactive) | > 100 µM (inactive) | > 100 µM (inactive) | > 100 µM (inactive) | > 100 µM (inactive)
CCOC(=O)C1=C(N2CCCC2)NC(=O)CC1=O | > 100 µM (inactive) |  | > 100 µM (inactive) | > 100 µM (inactive) | > 100 µM (inactive) | > 100 µM (inactive) | > 100 µM (inactive) | > 100 µM (inactive) | > 100 µM (inactive) | > 100 µM (inactive) | > 100 µM (inactive) | > 100 µM (inactive) | > 100 µM (inactive) | > 100 µM (inactive) | > 100 µM (inactive) | > 100 µM (inactive) | > 100 µM (inactive) | > 100 µM (inactive) | > 100 µM (inactive)
NC(=O)/N=C1/CCC2C3CCCC2C13 | > 100 µM (inactive) | > 100 µM (inactive) | > 100 µM (inactive) | > 100 µM (inactive) | > 100 µM (inactive) | > 100 µM (inactive) | > 100 µM (inactive) | > 100 µM (inactive) | > 100 µM (inactive) | > 100 µM (inactive) | > 100 µM (inactive) | > 100 µM (inactive) | > 100 µM (inactive) | > 100 µM (inactive) | > 100 µM (inactive) | > 100 µM (inactive) | 60.7 µM (inactive) |  | 
Nc1ccccc1C(=O)/C=C/c1c(O)ccc2ccccc12 | > 100 µM (inactive) | > 100 µM (inactive) | > 100 µM (inactive) | > 100 µM (inactive) | > 100 µM (inactive) | > 100 µM (inactive) | > 100 µM (inactive) | > 100 µM (inactive) | > 100 µM (inactive) | > 100 µM (inactive) | 19.2 µM (inactive) | > 100 µM (inactive) | > 100 µM (inactive) | > 100 µM (inactive) | > 100 µM (inactive) | > 100 µM (inactive) | > 100 µM (inactive) |  | 
CC[C@H]1CC(=O)c2c(cc3c(c2O)C(=O)c2ccccc2C3=O)[C@@]1(C#N)C(=O)OC(C)(C)C | 2.62 µM (inactive) | 4.1 µM (inactive) | 1.96 µM (inactive) | 3.66 µM (inactive) | 5.2 µM (inactive) | 1.77 µM (inactive) | 9.31 µM (inactive) | 3.24 µM (inactive) |  |  | 3.54 µM (inactive) | 10.3 µM (inactive) | 5.92 µM (inactive) | 3.31 µM (inactive) | 2.4 µM (inactive) | 2.7 µM (inactive) | 2.17 µM (inactive) |  | 
NC(=O)NC(=O)c1cccc(C(=O)NC(N)=O)n1 | > 100 µM (inactive) |  | > 10 µM (inactive) | > 100 µM (inactive) | > 100 µM (inactive) | > 100 µM (inactive) | 24 µM (inactive) | > 100 µM (inactive) | > 100 µM (inactive) | > 100 µM (inactive) | > 100 µM (inactive) | > 100 µM (inactive) | > 100 µM (inactive) | > 100 µM (inactive) |  | > 100 µM (inactive) | > 100 µM (inactive) | > 100 µM (inactive) | > 100 µM (inactive)
COc1ccc2c(c1)O[C@@H]1c3ccc(OC)cc3OC[C@H]21 | 42.1 µM (inactive) | 16 µM (inactive) |  | 22.9 µM (inactive) | 22.4 µM (inactive) | 72.8 µM (inactive) | 17.1 µM (inactive) | 23.2 µM (inactive) | 27.2 µM (inactive) | 6.11 µM (inactive) | 17.9 µM (inactive) | 45.3 µM (inactive) | 40.5 µM (inactive) | 52.4 µM (inactive) | 37 µM (inactive) | 27.7 µM (inactive) | 23 µM (inactive) |  | 
C=C(C)[C@]12CC(C)C34OC(/C=C\C=C\CCCCCCCCC)(O[C@@H]1[C@@H]3[C@@H]1O[C@]1(CO)[C@@H](O)[C@]1(O)C(=O)C(C)=C[C@@H]41)O2 (stereo partly specified) | 16.3 µM (inactive) | 5.07 µM (inactive) | 0.0001 µM (active) | 2.16 µM (inactive) | 14.8 µM (inactive) |  |  | 14.4 µM (inactive) | 2.52 µM (inactive) | 0.0103 µM (active) | 0.026 µM (active) | 17.1 µM (inactive) | 12.1 µM (inactive) | 5.61 µM (inactive) | 14.8 µM (inactive) | 7.48 µM (inactive) |  | 2 µM (inactive) | 18.5 µM (inactive)
C=CCC12CCC(=O)[C@@]1(C)CC=C(O)C2=O (stereo partly specified) | > 100 µM (inactive) | > 100 µM (inactive) | > 100 µM (inactive) | > 100 µM (inactive) | > 100 µM (inactive) | > 100 µM (inactive) | > 100 µM (inactive) |  | > 100 µM (inactive) |  | > 100 µM (inactive) | > 100 µM (inactive) | > 100 µM (inactive) | > 100 µM (inactive) | > 100 µM (inactive) | > 100 µM (inactive) |  |  | 
COc1ccc(-c2coc3cc(O)ccc3c2=O)cc1 [FORMONONETIN] | > 100 µM (inactive) | > 100 µM (inactive) | > 100 µM (inactive) | > 100 µM (inactive) |  | > 100 µM (inactive) |  | > 100 µM (inactive) | > 100 µM (inactive) | > 100 µM (inactive) |  | > 100 µM (inactive) | > 100 µM (inactive) | > 100 µM (inactive) | > 100 µM (inactive) | > 100 µM (inactive) | > 100 µM (inactive) | > 100 µM (inactive) | > 100 µM (inactive)
